Experimental data published in US10865191B2, “Heterocyclic compounds useful as modulators of TNF alpha” (BRISTOL-MYERS SQUIBB COMPANY, priority 2015, dated 2020).

Each compound was assayed against TNFα (Homo sapiens, UniProt P01375) (assay: TNF induced HEK-Blue assay (NF-kB-driven secreted alkaline phosphatase reporter)). Conditions: TNF induced HEK-Blue assay IC50 value, TNFα 0.5 ng/mL, HEK-Blue-CD40L cells, 18 h.
Assay type: cell-based
Method in brief: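 HEK-Blue-CD40L cells (NF-kB-driven SEAP reporter), 20,000/well, added after 30 min pre-incubation of compound (0.004–25 μM final) with TNFα 0.5 ng/mL final at 37 °C; 18 h incubation. SEAP read with QUANTI-Blue at 620 nm; IC50 from 4-parameter logistic fit, normalized to unstimulated and stimulated DMSO controls.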

Chain of TNFα (P01375 77-233 limits assumed): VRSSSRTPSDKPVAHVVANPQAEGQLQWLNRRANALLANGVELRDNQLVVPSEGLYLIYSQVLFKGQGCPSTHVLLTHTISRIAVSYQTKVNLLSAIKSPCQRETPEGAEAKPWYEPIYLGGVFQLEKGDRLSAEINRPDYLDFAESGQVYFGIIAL

| IC50 [nM] | SMILES |
| --- | --- |
| 10000 to 25000 | CC(Nc1c(Cl)cnc2ccc(-c3cnc(C(C)(C)O)nc3)cc12)c1ccc(F)cc1 (racemic) [Example 157, 2-(5-(3-chloro-4-((1-(4-fluorophenyl)ethyl)amino)quinolin-6-yl)pyrimidin-2-yl)propan-2-ol] |

Same assay, conditions: TNFα 0.5 ng/mL, HEK-Blue-CD40L cells, 18 h; read-out: TNF induced HEK-Blue assay IC50 value

| SMILES | IC50 [nM] |
| --- | --- |
| CC(Nc1c(Cl)cnc2ccc(-c3cnc(C(C)(C)O)nc3)cc12)[C@@H]1CCCN(C(=O)OC(C)(C)C)C1 (mixture of isomers) [Example 61, tert-butyl (R)-3-((R)-1-((3-chloro-6-(2-(2-hydroxypropan-2-yl)pyrimidin-5-yl)quinolin-4-yl)amino)ethyl)piperidine-1-carboxylate] | 1000 to 10000 |
| C[C@@H](Nc1c(Cl)cnc2ccc(-c3ccc(C4(NC(N)=O)CCC4)cc3)cc12)c1ccccc1F [Example 483, (R)-1-(1-(4-(3-chloro-4-((1-(2-fluorophenyl)ethyl)amino)quinolin-6-yl)phenyl)cyclobutyl)urea] | 1000 to 10000 |
| Cc1ccc(C)c(Nc2c(Cl)c(C(=O)N(C)C)nc3ccc(-c4ccc(C#N)nc4)cc23)c1 [Example 34, 3-chloro-6-(6-cyanopyridin-3-yl)-4-((2,5-dimethylphenyl)amino)-N,N-dimethylquinoline-2-carboxamide] | 1000 to 10000 |
| CC(Cc1cn(C)c(=O)c2ccccc12)Nc1c(Cl)cnc2ccc(-c3cnc(C(C)(C)O)nc3)cc12 (racemic) [Example 138, 4-(2-((3-chloro-6-(2-(2-hydroxypropan-2-yl)pyrimidin-5-yl)quinolin-4-yl)amino)propyl)-2-methylisoquinolin-1(2H)-one] | 10000 to 25000 |
| C=Cc1ccc(F)c([C@@H](C)Nc2c(Cl)c(C)nc3cc(F)c(-c4cnc(C(C)(C)O)nc4)nc23)c1 [Example 572, (R)-2-(5-(7-chloro-3-fluoro-8-((1-(2-fluoro-5-vinylphenyl)ethyl)amino)-6-methyl-1,5-naphthyridin-2-yl)pyrimidin-2-yl)propan-2-ol] | 1000 to 10000 |
| CC(C)(O)c1ncc(-c2ccc3ncc(Cl)c(NC(C)(C)c4ccc(C(F)(F)F)cc4)c3c2)cn1 [Example 185, 2-(5-(3-chloro-4-((2-(4-(trifluoromethyl)phenyl)propan-2-yl)amino)quinolin-6-yl)pyrimidin-2-yl)propan-2-ol] | 10000 to 25000 |
| C[C@@H](Nc1c(Cl)cnc2ccccc12)c1cc(-c2cnn(C(F)F)c2)ccc1F [Example 471, (R)-3-chloro-N-(1-(5-(1-(difluoromethyl)-1H-pyrazol-4-yl)-2-fluorophenyl)ethyl) quinolin-4-amine] | 1000 to 10000 |
| CC(Nc1c(Cl)cnc2cc(F)c(-c3ccc(C(O)C4CC4)cc3)cc12)c1ccccc1F (stereo not shown) [Example 263, (4-(3-chloro-7-fluoro-4-((1-(2-fluorophenyl)ethyl)amino)quinolin-6-yl)phenyl)(cyclopropyl)methanol] | 1000 to 10000 |
| Cc1nc2cc(F)c(-c3cnc(C(C)(C)O)nc3)cc2c(N[C@H](C)c2cc(CC(N)=O)ccc2F)c1Cl [Example 554, (R)-2-(3-(1-((3-chloro-7-fluoro-6-(2-(2-hydroxypropan-2-yl)pyrimidin-5-yl)-2-methylquinolin-4-yl)amino)ethyl)-4-fluorophenyl)acetamide] | < 1000 |
| CCN(Cc1c(Cl)cnc2ccc(-c3cnc(C(C)(C)O)nc3)cc12)c1ccccc1 [Example 66, 2-(5-(3-chloro-4-((ethyl(phenyl)amino)methyl)quinolin-6-yl)pyrimidin-2-yl)propan-2-ol] | 1000 to 10000 |
| CC(Nc1c(Cl)cnc2cc(F)c(-c3ccc(C4COCCN4)cc3)cc12)c1ccccc1F (single isomer, unassigned) [Example 598, 3-chloro-7-fluoro-N-(1-(2-fluorophenyl)ethyl)-6-(4-(morpholin-3-yl)phenyl)quinolin-4-amine] | 1000 to 10000 |
| C[C@@H](Nc1c(Cl)cnc2ccc(-c3cnc(C(C)(C)O)nc3)cc12)c1cc(C=NO)ccc1F [Example 424, (R)-3-(1-((3-chloro-6-(2-(2-hydroxypropan-2-yl)pyrimidin-5-yl)quinolin-4-yl)amino)ethyl)-4-fluorobenzaldehyde oxime] | < 1000 |
| CCn1cc(-c2ccc(F)c([C@@H](C)Nc3c(Cl)cnc4ccccc34)c2)cn1 [Example 473, (R)-3-chloro-N-(1-(5-(1-ethyl-1H-pyrazol-4-yl)-2-fluorophenyl)ethyl)quinolin-4-amine] | < 1000 |
| C[C@@H](Nc1c(Cl)cnc2cc(F)c(-c3cnc(C(C)(C)O)nc3)nc12)c1cccc(C(N)=O)c1 [Example 581, (R)-3-(1-((3-chloro-7-fluoro-6-(2-(2-hydroxypropan-2-yl)pyrimidin-5-yl)-1,5-naphthyridin-4-yl)amino)ethyl)benzamide] | 10000 to 25000 |
| C[C@@H](Nc1c(Cl)cnc2ccc(-c3cnc(N4CCNC(=O)C4)nc3)cc12)c1ccccc1F [Example 226, (R)-4-(5-(3-chloro-4-((1-(2-fluorophenyl)ethyl)amino)quinolin-6-yl)pyrimidin-2-yl)piperazin-2-one] | < 1000 |
| C[C@H](Nc1c(Cl)cnc2ccc(-c3cnc(C(C)(C)O)nc3)cc12)[C@H]1CCCN(C(N)=O)C1 [Example 103, (S)-3-((S)-1-((3-chloro-6-(2-(2-hydroxypropan-2-yl)pyrimidin-5-yl)quinolin-4-yl)amino)ethyl)piperidine-1-carboxamide] | 1000 to 10000 |
| C[C@@H](Nc1c(Cl)cnc2cc(F)c(-c3cnc(C(C)(C)O)nc3)nc12)c1cccc(C#N)c1 [Example 588, (R)-3-(1-((3-chloro-7-fluoro-6-(2-(2-hydroxypropan-2-yl)pyrimidin-5-yl)-1,5-naphthyridin-4-yl)amino)ethyl)benzonitrile] | < 1000 |
| C[C@H](Nc1c(Cl)cnc2ccc(-c3cnc(C(C)(C)O)nc3)cc12)[C@H]1CCCN(C(=O)c2cccnc2)C1 [Example 566, ((S)-3-((S)-1-((3-chloro-6-(2-(2-hydroxypropan-2-yl)pyrimidin-5-yl)quinolin-4-yl)amino)ethyl)piperidin-1-yl)(pyridin-3-yl)methanone] | 1000 to 10000 |

Now from value to compound:

| IC50 [nM] | SMILES |
| --- | --- |
| < 1000 | CC(Nc1c(Cl)cnc2cc(F)c(-c3cnc(N4CCN(CC(=O)O)CC4)nc3)cc12)c1ccccc1F (single isomer, unassigned) [Example 242, 2-(4-(5-(3-chloro-7-fluoro-4-((1-(2-fluorophenyl)ethyl)amino)quinolin-6-yl)pyrimidin-2-yl)piperazin-1-yl)acetic acid] |
| < 1000 | CC(C)(O)c1ncc(-c2ccc3ncc(Cl)c(NN4CCc5ccccc54)c3c2)cn1 [Example 47, 2-(5-(3-chloro-4-(indolin-1-ylamino)quinolin-6-yl)pyrimidin-2-yl)propan-2-ol] |
| < 1000 | COCC(C)(O)c1ncc(-c2cc3c(NC(C)c4ccccc4F)c(Cl)cnc3cc2F)cn1 (stereo not shown) [Example 292, 2-(5-(3-chloro-7-fluoro-4-((1-(2-fluorophenyl)ethyl)amino)quinolin-6-yl)pyrimidin-2-yl)-1-methoxypropan-2-ol] |
| < 1000 | Cc1nc2ccc(-c3cnc(C(C)(C)O)nc3)cc2c(N[C@H](C)c2cc(O)ccc2F)c1Cl [Example 404, (R)-3-(1-((3-chloro-6-(2-(2-hydroxypropan-2-yl)pyrimidin-5-yl)-2-methylquinolin-4-yl)amino)ethyl)-4-fluorophenol] |
| < 1000 | CC(Cc1ccco1)Nc1c(Cl)cnc2ccc(-c3cnc(C(C)(C)O)nc3)cc12 (racemic) [Example 133, 2-(5-(3-chloro-4-((1-(furan-2-yl)propan-2-yl)amino)quinolin-6-yl)pyrimidin-2-yl)propan-2-ol] |
| < 1000 | C[C@@H](Nc1c(Cl)cnc2ccc(-c3cnc(C(C)(C)O)nc3)cc12)c1cc(-c2cccnc2)ccc1F [Example 553, (R)-2-(5-(3-chloro-4-((1-(2-fluoro-5-(pyridin-3-yl)phenyl)ethyl)amino)quinolin-6-yl)pyrimidin-2-yl)propan-2-ol] |
| < 1000 | C[C@@H](Nc1c(Cl)cnc2ccccc12)c1cc(-c2cnn(C)c2)ccc1F [Example 454, (R)-3-chloro-N-(1-(2-fluoro-5-(1-methyl-1H-pyrazol-4-yl)phenyl)ethyl)quinolin-4-amine] |
| < 1000 | C[C@@H](Nc1c(Cl)cnc2ccc(-c3cnc(C(C)(C)O)nc3)cc12)c1cc(N2CCOC2=O)ccc1F [Example 367, (R)-3-(3-(1-((3-chloro-6-(2-(2-hydroxypropan-2-yl)pyrimidin-5-yl)quinolin-4-yl)amino)ethyl)-4-fluorophenyl) oxazolidin-2-one] |
| < 1000 | Cc1nc2ccc(-c3cnc(C(C)(C)O)nc3)cc2c(N[C@H](C)c2cc(CC(=O)O)ccc2F)c1Cl [Example 436, (R)-2-(3-(1-((3-chloro-6-(2-(2-hydroxypropan-2-yl)pyrimidin-5-yl)-2-methylquinolin-4-yl)amino)ethyl)-4-fluorophenyl)acetic acid] |
| < 1000 | C[C@@H](Nc1c(Cl)cnc2ccc(-c3cnc(C(C)(C)O)nc3)cc12)c1cc(N2CCCC2=O)ccc1F [Example 362, (R)-1-(3-(1-((3-chloro-6-(2-(2-hydroxypropan-2-yl)pyrimidin-5-yl)quinolin-4-yl)amino)ethyl)-4-fluorophenyl)pyrrolidin-2-one] |
| < 1000 | Cc1nc2c(F)cc(-c3cnc(C(C)(C)O)nc3)cc2c(N[C@@H](c2ccccc2F)C(F)F)c1Cl [Example 299, (S)-2-(5-(3-chloro-4-((2,2-difluoro-1-(2-fluorophenyl)ethyl)amino)-8-fluoro-2-methylquinolin-6-yl)pyrimidin-2-yl)propan-2-ol] |
| < 1000 | CC(Nc1ncc(-c2ccc3ncc(Cl)c(N[C@H](C)c4ccccc4F)c3c2)cn1)C(N)=O (stereo partly drawn) [Example 591, 2-((5-(3-chloro-4-(((R)-1-(2-fluorophenyl)ethyl)amino)quinolin-6-yl)pyrimidin-2-yl)amino)propanamide] |
